Laboratory results published in ChEMBL document CHEMBL2150945, “Synthesis and biological evaluation of novel piperazine derivatives of flavone as potent anti-inflammatory and antimicrobial agent” (2012).
Converted amounts (≈) assume the structure as drawn.

How the values were obtained:
Fusarium solani [1] = assay: Ratio of miconazole MIC to compound MIC for Fusarium solani MTCC 350; type: functional
THP-1 [2] = assay: Antiinflammatory activity in human PMA-activated THP1 cells assessed as inhibition of LPS-induced TNFalpha production at 10 uM incubated for 30 mins prior to LPS-challenge measured after 24 hrs by ELISA relative to control; type: functional
Staphylococcus aureus [3] = assay: Antibacterial activity against Staphylococcus aureus MTCC 96 after 24 hrs by modified agar well diffusion method; type: functional; settings: MTCC 96, 24 h
Aspergillus niger [4] = assay: Antifungal activity against Aspergillus niger MTCC 281 after 2 to 3 days by modified agar well diffusion method; type: functional
Salmonella typhimurium [5] = assay: Antibacterial activity against Salmonella typhimurium MTCC 98 after 24 hrs by modified agar well diffusion method; type: functional, Salmonella enterica subsp. enterica serovar Typhimurium; settings: Salmonella enterica, MTCC 98, 24 h
Fusarium solani [6] = assay: Antifungal activity against Fusarium solani MTCC 350 after 2 to 3 days by modified agar well diffusion method; type: functional
Aspergillus niger [7] = assay: Ratio of miconazole MIC to compound MIC for Aspergillus niger MTCC 281; type: functional
Aspergillus flavus [8] = assay: Antifungal activity against Aspergillus flavus MTCC 277 after 2 to 3 days by modified agar well diffusion method; type: functional
Escherichia coli [9] = assay: Ratio of ciprofloxacin MIC to compound MIC for Escherichia coli MTCC 443; type: functional
Bacillus subtilis [10] = assay: Antibacterial activity against Bacillus subtilis MTCC 441 after 24 hrs by modified agar well diffusion method; type: functional; settings: MTCC 441, 24 h
Candida albicans [11] = assay: Ratio of miconazole MIC to compound MIC for Candida albicans MTCC 227; type: functional
Escherichia coli [12] = assay: Antibacterial activity against Escherichia coli MTCC 443 after 24 hrs by modified agar well diffusion method; type: functional; settings: MTCC 443, 24 h
Staphylococcus aureus [13] = assay: Ratio of ciprofloxacin MIC to compound MIC for Staphylococcus aureus MTCC 96; type: functional
Candida albicans [14] = assay: Antifungal activity against Candida albicans MTCC 227 after 2 to 3 days by modified agar well diffusion method; type: functional
Salmonella typhimurium [15] = assay: Ratio of ciprofloxacin MIC to compound MIC for Salmonella typhimurium MTCC 98; type: functional, Salmonella enterica subsp. enterica serovar Typhimurium
Bacillus subtilis [16] = assay: Ratio of ciprofloxacin MIC to compound MIC for Bacillus subtilis MTCC 441; type: functional
Aspergillus flavus [17] = assay: Ratio of miconazole MIC to compound MIC for Aspergillus flavus MTCC 277; type: functional
THP-1 [18] = assay: Antiinflammatory activity in human PMA-activated THP1 cells assessed as inhibition of LPS-induced IL6 production at 10 uM incubated for 30 mins prior to LPS-challenge measured after 24 hrs by ELISA relative to control; type: functional
THP-1 [19] = assay: Antiinflammatory activity in human PMA-activated THP1 cells assessed as inhibition of LPS-induced TNFalpha production at 1 uM incubated for 30 mins prior to LPS-challenge measured after 24 hrs by ELISA relative to control; type: functional
THP-1 [20] = assay: Antiinflammatory activity in human PMA-activated THP1 cells assessed as inhibition of LPS-induced IL6 production at 1 uM incubated for 30 mins prior to LPS-challenge measured after 24 hrs by ELISA relative to control; type: functional

Compound	Ratio (Fusarium solani [1])	inhibition at 10 µM (THP-1 [2])	MIC (Staphylococcus aureus [3])	MIC (Aspergillus niger [4])	MIC (Salmonella typhimurium [5])	MIC (Fusarium solani [6])	Ratio (Aspergillus niger [7])	MIC (Aspergillus flavus [8])	Ratio (Escherichia coli [9])	MIC (Bacillus subtilis [10])	Ratio (Candida albicans [11])	MIC (Escherichia coli [12])	Ratio (Staphylococcus aureus [13])	MIC (Candida albicans [14])	Ratio (Salmonella typhimurium [15])	Ratio (Bacillus subtilis [16])	Ratio (Aspergillus flavus [17])	inhibition at 10 µM (THP-1 [18])	inhibition at 1 µM (THP-1 [19])	inhibition at 1 µM (THP-1 [20])
COc1cc(OC)c2c(=O)cc(CNC3CCN(Cc4ccccc4)CC3)oc2c1	2	20%	10 µg/mL (≈ 24.5 µM)	10 µg/mL (≈ 24.5 µM)	15 µg/mL (≈ 36.7 µM)	15 µg/mL (≈ 36.7 µM)	2	10 µg/mL (≈ 24.5 µM)	2	10 µg/mL (≈ 24.5 µM)	2	10 µg/mL (≈ 24.5 µM)	2	10 µg/mL (≈ 24.5 µM)	2	2	2	35%		
COc1ccc2oc(N3CCN(c4ccccc4)CC3)cc(=O)c2c1		45%	75 µg/mL (≈ 223 µM)	85 µg/mL (≈ 253 µM)	80 µg/mL (≈ 238 µM)	80 µg/mL (≈ 238 µM)		95 µg/mL (≈ 282 µM)		50 µg/mL (≈ 149 µM)		80 µg/mL (≈ 238 µM)		90 µg/mL (≈ 268 µM)				60%		
COc1ccc2oc(N3CCN(c4ccccc4)CC3C#N)cc(=O)c2c1 (stereo unspecified)	2	10%	40 µg/mL (≈ 111 µM)	10 µg/mL (≈ 27.7 µM)	50 µg/mL (≈ 138 µM)	15 µg/mL (≈ 41.5 µM)	2	30 µg/mL (≈ 83 µM)	2	30 µg/mL (≈ 83 µM)	2	45 µg/mL (≈ 125 µM)	2	15 µg/mL (≈ 41.5 µM)	2	2	2	0%		
COc1ccc2oc(N3CCN(c4ncccn4)CC3)cc(=O)c2c1		82%	80 µg/mL (≈ 236 µM)	70 µg/mL (≈ 207 µM)	80 µg/mL (≈ 236 µM)	95 µg/mL (≈ 281 µM)		85 µg/mL (≈ 251 µM)		65 µg/mL (≈ 192 µM)		80 µg/mL (≈ 236 µM)		85 µg/mL (≈ 251 µM)				87%		
COc1ccc2oc(N3CCN(Cc4ccccc4)CC3)cc(=O)c2c1		0%	70 µg/mL (≈ 200 µM)	30 µg/mL (≈ 85.6 µM)	65 µg/mL (≈ 185 µM)	45 µg/mL (≈ 128 µM)		65 µg/mL (≈ 185 µM)		55 µg/mL (≈ 157 µM)		65 µg/mL (≈ 185 µM)		55 µg/mL (≈ 157 µM)				0%		
CCN1CCN(c2cc(=O)c3cc(OC)ccc3o2)CC1		30%	90 µg/mL (≈ 312 µM)	60 µg/mL (≈ 208 µM)		70 µg/mL (≈ 243 µM)		70 µg/mL (≈ 243 µM)		80 µg/mL (≈ 277 µM)				75 µg/mL (≈ 260 µM)				40%		
COc1ccc2oc(N3CCN(C)CC3)cc(=O)c2c1		25%	50 µg/mL (≈ 182 µM)	90 µg/mL (≈ 328 µM)	65 µg/mL (≈ 237 µM)					45 µg/mL (≈ 164 µM)		40 µg/mL (≈ 146 µM)		90 µg/mL (≈ 328 µM)				35%		
COc1ccc(N2CCN(c3cc(=O)c4cc(OC)ccc4o3)CC2)cc1		79%	60 µg/mL (≈ 164 µM)	75 µg/mL (≈ 205 µM)	80 µg/mL (≈ 218 µM)	85 µg/mL (≈ 232 µM)		90 µg/mL (≈ 246 µM)		45 µg/mL (≈ 123 µM)		75 µg/mL (≈ 205 µM)		95 µg/mL (≈ 259 µM)				83%		
COc1ccc2oc(NCCN3CCCC3)cc(=O)c2c1	2	5%	20 µg/mL (≈ 69.4 µM)	10 µg/mL (≈ 34.7 µM)	10 µg/mL (≈ 34.7 µM)	10 µg/mL (≈ 34.7 µM)	2	15 µg/mL (≈ 52 µM)	2	10 µg/mL (≈ 34.7 µM)	2	15 µg/mL (≈ 52 µM)	2	10 µg/mL (≈ 34.7 µM)	2	2	2	20%		
COc1ccc2oc(NC3CCN(Cc4ccccc4)CC3)cc(=O)c2c1	2	10%	10 µg/mL (≈ 27.4 µM)	10 µg/mL (≈ 27.4 µM)	10 µg/mL (≈ 27.4 µM)	10 µg/mL (≈ 27.4 µM)	2	15 µg/mL (≈ 41.2 µM)	2	10 µg/mL (≈ 27.4 µM)	2	10 µg/mL (≈ 27.4 µM)	2	15 µg/mL (≈ 41.2 µM)	2	2	2	15%		
COc1cc(OC)c2c(=O)cc(CN3CCN(c4ccccc4)CC3)oc2c1		45%	90 µg/mL (≈ 237 µM)	90 µg/mL (≈ 237 µM)	90 µg/mL (≈ 237 µM)	95 µg/mL (≈ 250 µM)		85 µg/mL (≈ 223 µM)		90 µg/mL (≈ 237 µM)		90 µg/mL (≈ 237 µM)		80 µg/mL (≈ 210 µM)				50%		
COc1ccc(N2CCN(Cc3cc(=O)c4c(OC)cc(OC)cc4o3)CC2)cc1		85%	65 µg/mL (≈ 158 µM)	80 µg/mL (≈ 195 µM)	65 µg/mL (≈ 158 µM)	75 µg/mL (≈ 183 µM)		85 µg/mL (≈ 207 µM)		40 µg/mL (≈ 97.4 µM)		70 µg/mL (≈ 171 µM)		95 µg/mL (≈ 231 µM)				93%		
COc1cc(OC)c2c(=O)cc(CN3CCN(c4ccccn4)CC3)oc2c1		65%		95 µg/mL (≈ 249 µM)		90 µg/mL (≈ 236 µM)		95 µg/mL (≈ 249 µM)		85 µg/mL (≈ 223 µM)				85 µg/mL (≈ 223 µM)				70%		
COc1cc(OC)c2c(=O)cc(CN3CCN(c4ncccn4)CC3)oc2c1		87%		75 µg/mL (≈ 196 µM)	90 µg/mL (≈ 235 µM)	65 µg/mL (≈ 170 µM)		95 µg/mL (≈ 248 µM)				90 µg/mL (≈ 235 µM)		90 µg/mL (≈ 235 µM)				93%		
COc1cc(OC)c2c(=O)cc(CN3CCN(C(C)=O)CC3)oc2c1		0%	80 µg/mL (≈ 231 µM)	60 µg/mL (≈ 173 µM)	90 µg/mL (≈ 260 µM)	85 µg/mL (≈ 245 µM)		90 µg/mL (≈ 260 µM)		60 µg/mL (≈ 173 µM)		95 µg/mL (≈ 274 µM)		75 µg/mL (≈ 217 µM)				0%		
COc1cc(OC)c2c(=O)cc(CN3CCN(C)CC3)oc2c1		10%	60 µg/mL (≈ 188 µM)	55 µg/mL (≈ 173 µM)	90 µg/mL (≈ 283 µM)	75 µg/mL (≈ 236 µM)		75 µg/mL (≈ 236 µM)		45 µg/mL (≈ 141 µM)		90 µg/mL (≈ 283 µM)		70 µg/mL (≈ 220 µM)				0%		
CCN1CCN(Cc2cc(=O)c3c(OC)cc(OC)cc3o2)CC1		20%	75 µg/mL (≈ 226 µM)	35 µg/mL (≈ 105 µM)	70 µg/mL (≈ 211 µM)	45 µg/mL (≈ 135 µM)		60 µg/mL (≈ 181 µM)		65 µg/mL (≈ 196 µM)		70 µg/mL (≈ 211 µM)		55 µg/mL (≈ 165 µM)				30%		
COc1cc(OC)c2c(=O)cc(CN3CCOCC3)oc2c1		85%		80 µg/mL (≈ 262 µM)		85 µg/mL (≈ 278 µM)		90 µg/mL (≈ 295 µM)		90 µg/mL (≈ 295 µM)				85 µg/mL (≈ 278 µM)				91%		
COc1cc(OC)c2c(=O)cc(CN3CCN(C/C=C/c4ccccc4)CC3)oc2c1	2	10%	20 µg/mL (≈ 47.6 µM)		10 µg/mL (≈ 23.8 µM)		2		2	10 µg/mL (≈ 23.8 µM)	2	15 µg/mL (≈ 35.7 µM)	2	90 µg/mL (≈ 214 µM)	2	2	2	25%		
COc1ccc2oc(N3CCOCC3)cc(=O)c2c1		80%	95 µg/mL (≈ 364 µM)	90 µg/mL (≈ 344 µM)	90 µg/mL (≈ 344 µM)					75 µg/mL (≈ 287 µM)		90 µg/mL (≈ 344 µM)						84%		
O=C(O)c1cn(C2CC2)c2cc(N3CCNCC3)c(F)cc2c1=O [CIPROFLOXACIN]					25 µg/mL (≈ 75.4 µM)					25 µg/mL (≈ 75.4 µM)		15 µg/mL (≈ 45.3 µM)								
C[C@@H]1C[C@H]2[C@@H]3CCC4=CC(=O)C=C[C@]4(C)[C@@]3(F)[C@@H](O)C[C@]2(C)[C@@]1(O)C(=O)CO [DEXAMETHASONE]																			71%	84%
Clc1ccc(COC(Cn2ccnc2)c2ccc(Cl)cc2Cl)c(Cl)c1 (stereo unspecified) [MICONAZOLE]				20 µg/mL (≈ 48.1 µM)		15 µg/mL (≈ 36 µM)		20 µg/mL (≈ 48.1 µM)						25 µg/mL (≈ 60.1 µM)						
